Columns and labels:
[1] = molecular target: PDGFRβ kinase, purified cytoplasmic domain PDGFR-b protein (Homo sapiens (Human), UniProt P09619); test: PDGFRβ Kinase Assay; type: biochemical; conditions: 36 μM ATP, poly-Glu-Tyr (4:1) substrate, 60 minute incubation at 30° C.
Method: (§1) Biochemical PDGFRβ kinase assays were performed in 96 well microtiter plates that were coated overnight with 75 μg of poly-Glu-Tyr (4:1) in 10 mM Phosphate Buffered Saline (PBS), pH 7.4. The coated plates were washed with 2 mls per well PBS+0.05% Tween-20 (PBS-T), blocked by incubation with PBS containing 1% BSA, then washed with 2 mls per well PBS-T prior to starting the reaction. Reactions were carried out in 100 μL reaction volumes containing 36 μM ATP in kinase buffer (50 mM Hepes buffer pH 7.4, 20 mM MgCl2, 0.1 mM MnCl2 and 0.2 mM Na3VO4). Test compounds were reconstituted in 100% DMSO and added to the reaction to give a final DMSO concentration of 5%. Reactions were initiated by the addition 20 ul per well of kinase buffer containing 200-300 ng purified cytoplasmic domain PDGFR-b protein (Millipore). Following a 60 minute incubation at 30° C., the reactions were washed 2 mls per well PBS-T. 100 μl of a monoclonal anti-phosphotyrosine antibody-peroxidase conjugate diluted 1:10,000 in PBS-T was added to the wells for 30 minutes. Following a 2 mls per well wash with PBS-Tween-20, 100 μl of O-Phenylenediamine Dihydrochloride in phosphate-citrate buffer, containing urea hydrogen peroxide, was added to the wells for 7-10 minutes as a colorimetric substrate for the peroxidase. The reaction was terminated by the addition of 100 μl of 2.5N H2SO4 to each well and read using a microplate ELISA reader set at 492 nm. IC50 values for compound inhibition were calculated directly from graphs of optical density (arbitrary units) versus compound concentration following subtraction of blank values.

[2] = molecular target: VEGFR2 (KDR) kinase, purified cytoplasmic domain KDR protein (Homo sapiens (Human), UniProt P35968); test: VEGFR2 Kinase Assay; type: biochemical; conditions: 2.7 μM ATP, poly-Glu-Tyr (4:1) substrate, 15 minute incubation at 30° C.
Method: as §1, with “KDR” for “PDGFRβ”, “μg/well” for “μg”, “2.7” for “36”, “KDR” for “PDGFR-b”, “(BPS Bioscience, San Diego, Calif.).” for “(Millipore).”, “15” for “60”

VEGFR2 (KDR) kinase, purified cytoplasmic domain KDR protein, sequence (P35968 786-1356, species assumed): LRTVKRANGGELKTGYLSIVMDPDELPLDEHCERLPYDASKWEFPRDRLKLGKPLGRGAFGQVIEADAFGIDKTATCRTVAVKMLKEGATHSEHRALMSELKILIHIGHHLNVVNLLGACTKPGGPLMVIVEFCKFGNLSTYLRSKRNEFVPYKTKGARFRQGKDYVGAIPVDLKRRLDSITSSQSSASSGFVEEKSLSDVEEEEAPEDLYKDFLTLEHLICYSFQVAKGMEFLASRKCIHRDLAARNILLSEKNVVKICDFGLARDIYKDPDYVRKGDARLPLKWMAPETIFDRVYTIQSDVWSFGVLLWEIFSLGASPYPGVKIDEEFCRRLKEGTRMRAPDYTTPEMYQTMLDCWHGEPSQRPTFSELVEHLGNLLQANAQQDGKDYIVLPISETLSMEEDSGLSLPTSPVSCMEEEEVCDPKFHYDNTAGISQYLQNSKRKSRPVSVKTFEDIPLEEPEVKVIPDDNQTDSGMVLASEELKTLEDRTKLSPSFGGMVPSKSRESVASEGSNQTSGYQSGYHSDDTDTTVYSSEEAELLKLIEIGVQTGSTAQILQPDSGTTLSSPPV
PDGFRβ kinase, purified cytoplasmic domain PDGFR-b protein, sequence (P09619 554-1106): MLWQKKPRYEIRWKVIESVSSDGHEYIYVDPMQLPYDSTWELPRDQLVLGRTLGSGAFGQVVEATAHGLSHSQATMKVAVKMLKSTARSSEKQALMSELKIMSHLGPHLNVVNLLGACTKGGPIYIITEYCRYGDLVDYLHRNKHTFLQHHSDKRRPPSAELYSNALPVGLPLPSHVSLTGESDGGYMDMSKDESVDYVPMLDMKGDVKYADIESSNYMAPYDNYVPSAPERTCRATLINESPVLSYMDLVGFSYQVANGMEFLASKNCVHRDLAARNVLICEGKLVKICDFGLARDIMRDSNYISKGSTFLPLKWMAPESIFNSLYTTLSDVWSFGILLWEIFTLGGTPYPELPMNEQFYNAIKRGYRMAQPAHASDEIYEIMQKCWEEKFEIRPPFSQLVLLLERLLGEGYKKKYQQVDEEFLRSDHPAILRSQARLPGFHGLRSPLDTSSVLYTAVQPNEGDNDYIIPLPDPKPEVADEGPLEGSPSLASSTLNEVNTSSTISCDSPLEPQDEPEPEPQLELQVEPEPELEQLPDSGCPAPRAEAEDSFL

## Cc1cccc(NC(=O)Nc2ccc(-c3[nH]c4ccccc4c3C(N)=O)cc2)c1 [Compound 1, 2-[4-({[(3-methylphenyl)amino]carbonyl}amino)phenyl]-1H-indole-3-carboxamide]
[1]
  IC50: 140 nM
[2]
  IC50: 13 nM

## Cc1ccoc1C(=O)Nc1cccc(-c2[nH]c3ccccc3c2C(N)=O)c1 [Compound 9, 2-{3-[(3-methyl-2-furoyl)amino]phenyl}-1H-indole-3-carboxamide]
[1]
  IC50: > 10000 nM
[2]
  IC50: > 10000 nM

## NC(=O)c1c(-c2cccc(NC(=O)Nc3cccc(C(F)(F)F)c3)c2)[nH]c2ccccc12 [Compound 8, 2-{3-[({[3-(trifluoromethyl)phenyl]amino}carbonyl)amino]phenyl}-1H-indole-3-carboxamide]
[2]
  IC50: > 10000 nM

## NC(=O)c1c(-c2ccc(NC(=O)Nc3cccc(C(F)(F)F)c3)cc2)[nH]c2ccccc12 [Compound 2, 2-{4-[({[3-(trifluoromethyl)phenyl]amino}carbonyl)amino]phenyl}-1H-indole-3-carboxamide]
[1]
  IC50: 61 nM
[2]
  IC50: 7 nM

## CCc1cccc(NC(=O)Nc2ccc(-c3[nH]c4ccccc4c3C(N)=O)cc2)c1 [Compound 4, 2-[4-({[(3-ethylphenyl)amino]carbonyl}amino)phenyl]-1H-indole-3-carboxamide]
[1]
  IC50: 37 nM
[2]
  IC50: 7 nM

## Cc1ccoc1C(=O)Nc1ccc(-c2[nH]c3ccccc3c2C(N)=O)cc1 [Compound 5, 2-{4-[(3-methyl-2-furoyl)amino]phenyl}-1H-indole-3-carboxamide]
[2]
  IC50: > 10000 nM

## Cc1cccc(NC(=O)Nc2cccc(-c3[nH]c4ccccc4c3C(N)=O)c2)c1 [Compound 7, 2-[3-({[(3-methylphenyl)amino]carbonyl}amino)phenyl]-1H-indole-3-carboxamide]
[2]
  IC50: > 10000 nM

## Cc1ccc(F)c(C(=O)Nc2ccc(-c3[nH]c4ccccc4c3C(N)=O)cc2)c1 [Compound 6, 2-{4-[(2-fluoro-5-methylbenzoyl)amino]phenyl}-1H-indole-3-carboxamide]
[2]
  IC50: > 10000 nM

## Cc1ccc(F)c(C(=O)Nc2cccc(-c3[nH]c4ccccc4c3C(N)=O)c2)c1 [Compound 10, 2-{3-[(2-fluoro-5-methylbenzoyl)amino]phenyl}-1H-indole-3-carboxamide]
[2]
  IC50: > 10000 nM

## Cc1ccc(F)c(NC(=O)Nc2ccc(-c3[nH]c4ccccc4c3C(N)=O)cc2)c1 [Compound 3, 2-[4-({[(2-fluoro-5-methylphenyl)amino]carbonyl}amino)phenyl]-1H-indole-3-carboxamide]
[1]
  IC50: 267 nM
[2]
  IC50: 17 nM

Source: US9403803B2, “Indole-3-carboxamides as kinase inhibitors” (Allergan, Inc., priority 2014, dated 2016)
